Laboratory results taken from US20090194124A1, “Hair Shaping Kit and Process Comprising at Least One Non-Hydroxide Imine” (priority 2003, published 2009).

What was measured:
[1] = pH of the simplified permanent-waving composition; format: physicochemical
Description: […]. The pH of the composition was 13.6. This composition was applied to Caucasian hair, wound beforehand onto curlers, for 15 minutes at a temperature of 30° C.
[…]. The pH of the composition was 13.5. This composition was applied to Caucasian hair, wound beforehand onto curlers, for 25 minutes at a temperature of 30° C.
(§1) A simplified permanent-waving composition was prepared, containing, as a permanent-waving active agent, 1,3,4,6,7,8-hexahydro-2H-pyrimido[1,2-a]pyrimidine (Registry Number [5807-14-7]) at a concentration of 0.7 M in water. The pH of the composition was 13.5. This composition was applied to Caucasian hair, wound beforehand onto curlers, for 15 minutes at a temperature of 30° C.
as §1, with “0.5M” for “0.7 M”, “13.4.” for “13.5.”, “20” for “15”

[2] = permanent-waving of hair wound onto curlers with a simplified aqueous composition; details: Caucasian hair wound onto curlers
Description: In the permanent shaping processes described herein, the composition is applied to wet or dry hair, wound beforehand onto rollers (curlers) having a diameter of from 2 mm to 30 mm. It is also possible to apply the composition as the hair is wound up. […] This composition was applied to Caucasian hair, wound beforehand onto curlers, for 15 minutes at a temperature of 30° C. […] This composition was applied to Caucasian hair, wound beforehand onto curlers, for 25 minutes at a temperature of 30° C. […] This composition was applied to Caucasian hair, wound beforehand onto curlers, for 15 minutes at a temperature of 30° C. […] This composition was applied to Caucasian hair, wound beforehand onto curlers, for 20 minutes at a temperature of 30° C.

pH of the composition ([1]; 0.5M in water)	pH of the composition ([1]; 0.7 M in water)	SMILES	result on the hair after permanent-waving (curl and feel) ([2]; 0.5M in water, applied 20 minutes at 30° C.)	result on the hair after permanent-waving (curl and feel) ([2]; 0.7 M in water, applied 15 minutes at 30° C.)
13.5	13.6	CN(C)C(=N)NC(=N)N [1,1-dimethylbiguanide]		
13.4	13.5	C1CN=C2NCCCN2C1 [1,3,4,6,7,8-hexahydro-2H-pyrimido[1,2-a]pyrimidine]	beautifully curly and felt soft	beautifully curly and felt soft
